Assay results taken from ChEMBL document CHEMBL3885881, “DrugMatrix”.

Species on record: Rattus norvegicus
Test: DrugMatrix - Regimen: Daily Repeat
Type: toxicity, organism-based, Sprague-Dawley
Design: regimen Daily Repeat, gender Male, age 6-8 weeks
Settings: in vivo, po, route oral GAVAGE, vehicle 100 % WATER; for ABSOLUTE BASOPHIL / ABSOLUTE EOSINOPHIL / ABSOLUTE LYMPHOCYTE / ABSOLUTE MONOCYTE / ABSOLUTE SEGMENTED NEUTROPHIL / BASOPHIL / EOSINOPHIL / ERYTHROCYTE COUNT / HEMATOCRIT / HEMOGLOBIN / LEUKOCYTE COUNT / LYMPHOCYTE / MEAN CORPUSCULAR HEMOGLOBIN / MEAN CORPUSCULAR HEMOGLOBIN CONCENTRATION / MEAN CORPUSCULAR VOLUME / MONOCYTE / NEUTROPHIL / NUCLEATED RED BLOOD CELLS / PLATELET COUNT: tissue Blood; for ALANINE AMINOTRANSFERASE / ALBUMIN / ALKALINE PHOSPHATASE / ASPARTATE AMINOTRANSFERASE / BLOOD UREA NITROGEN / CARBON DIOXIDE / CHLORIDE / CHOLESTEROL / CREATINE PHOSPHOKINASE / CREATININE / GLUCOSE / LACTATE DEHYDROGENASE / LIPASE / PHOSPHORUS / POTASSIUM / SODIUM / TOTAL BILIRUBIN / TOTAL PROTEIN / URIC ACID: tissue Plasma
[1] = 0 mg/kg, 72 h, dose level Control, time 3 day
[2] = 0 mg/kg, 120 h, dose level Control, time 5 day
[3] = 11 mg/kg, 72 h, dose level Low, time 3 day

SMILES: CN(C)C(=O)Oc1cccc([N+](C)(C)C)c1.[Br-] [NEOSTIGMINE BROMIDE]
- ABSOLUTE BASOPHIL [1]: 0 CELLS/uL
- ABSOLUTE EOSINOPHIL [1]: 32.5 CELLS/uL
- ABSOLUTE LYMPHOCYTE [1]: 9305.83 CELLS/uL
- ABSOLUTE MONOCYTE [1]: 43.83 CELLS/uL
- ABSOLUTE SEGMENTED NEUTROPHIL [1]: 817.83 CELLS/uL
- BASOPHIL [1]: 0%
- EOSINOPHIL [1]: 0.33%
- ERYTHROCYTE COUNT [1]: 5.38 x10E6/uL
- HEMATOCRIT [1]: 33.63%
- HEMOGLOBIN [1]: 13.17 G/DL
- LEUKOCYTE COUNT [1]: 10.2 x10E3/uL
- LYMPHOCYTE [1]: 91.17%
- MEAN CORPUSCULAR HEMOGLOBIN [1]: 24.5 pg
- MEAN CORPUSCULAR HEMOGLOBIN CONCENTRATION [1]: 39.13 G/DL
- MEAN CORPUSCULAR VOLUME [1]: 62.53 fL
- MONOCYTE [1]: 0.5%
- NEUTROPHIL [1]: 8%
- NUCLEATED RED BLOOD CELLS [1]: 0.17 /100WBC
- PLATELET COUNT [1]: 858 x10E3/uL
- ALANINE AMINOTRANSFERASE [1]: 55.67 u/L
- ALBUMIN [1]: 4.07 G/DL
- ALKALINE PHOSPHATASE [1]: 337 u/L
- ASPARTATE AMINOTRANSFERASE [1]: 84 u/L
- BLOOD UREA NITROGEN [1]: 13.17 mg/dL
- CARBON DIOXIDE [1]: 34.17 mmol/L
- CHLORIDE [1]: 99.33 MEQ/L
- CHOLESTEROL [1]: 78.83 mg/dL
- CREATINE PHOSPHOKINASE [1]: 576.83 u/L
- CREATININE [1]: 0.17 mg/dL
- GLUCOSE [1]: 152.67 mg/dL
- LACTATE DEHYDROGENASE [1]: 147.83 u/L
- LIPASE [1]: 9.5 u/L
- PHOSPHORUS [1]: 10.78 mg/dL
- POTASSIUM [1]: 6.34 MEQ/L
- SODIUM [1]: 144.12 MEQ/L
- TOTAL BILIRUBIN [1]: 0.18 mg/dL
- TOTAL PROTEIN [1]: 6.08 G/DL
- URIC ACID [1]: 0.65 mg/dL
- ABSOLUTE BASOPHIL [2]: 0 CELLS/uL
- ABSOLUTE EOSINOPHIL [2]: 31.17 CELLS/uL
- ABSOLUTE LYMPHOCYTE [2]: 7918.33 CELLS/uL
- ABSOLUTE MONOCYTE [2]: 58.33 CELLS/uL
- ABSOLUTE SEGMENTED NEUTROPHIL [2]: 725.5 CELLS/uL
- BASOPHIL [2]: 0%
- EOSINOPHIL [2]: 0.33%
- ERYTHROCYTE COUNT [2]: 5.32 x10E6/uL
- HEMATOCRIT [2]: 33.53%
- HEMOGLOBIN [2]: 13.17 G/DL
- LEUKOCYTE COUNT [2]: 8.73 x10E3/uL
- LYMPHOCYTE [2]: 90.33%
- MEAN CORPUSCULAR HEMOGLOBIN [2]: 24.82 pg
- MEAN CORPUSCULAR HEMOGLOBIN CONCENTRATION [2]: 39.33 G/DL
- MEAN CORPUSCULAR VOLUME [2]: 63.12 fL
- MONOCYTE [2]: 0.67%
- NEUTROPHIL [2]: 8.67%
- NUCLEATED RED BLOOD CELLS [2]: 0 /100WBC
- PLATELET COUNT [2]: 1144.83 x10E3/uL
- ALANINE AMINOTRANSFERASE [2]: 60.5 u/L
- ALBUMIN [2]: 3.97 G/DL
- ALKALINE PHOSPHATASE [2]: 343.17 u/L
- ASPARTATE AMINOTRANSFERASE [2]: 80.83 u/L
- BLOOD UREA NITROGEN [2]: 15 mg/dL
- CARBON DIOXIDE [2]: 31 mmol/L
- CHLORIDE [2]: 99.75 MEQ/L
- CHOLESTEROL [2]: 71.5 mg/dL
- CREATINE PHOSPHOKINASE [2]: 237.17 u/L
- CREATININE [2]: 0.17 mg/dL
- GLUCOSE [2]: 137 mg/dL
- LACTATE DEHYDROGENASE [2]: 146.17 u/L
- LIPASE [2]: 11.5 u/L
- PHOSPHORUS [2]: 10.13 mg/dL
- POTASSIUM [2]: 6 MEQ/L
- SODIUM [2]: 145 MEQ/L
- TOTAL BILIRUBIN [2]: 0.13 mg/dL
- TOTAL PROTEIN [2]: 5.82 G/DL
- URIC ACID [2]: 0.62 mg/dL
- ABSOLUTE BASOPHIL [3]: 0 CELLS/uL
- ABSOLUTE EOSINOPHIL [3]: 0 CELLS/uL
- ABSOLUTE LYMPHOCYTE [3]: 8155 CELLS/uL
- ABSOLUTE MONOCYTE [3]: 60.33 CELLS/uL
- ABSOLUTE SEGMENTED NEUTROPHIL [3]: 851.33 CELLS/uL
- BASOPHIL [3]: 0%
- EOSINOPHIL [3]: 0%
- ERYTHROCYTE COUNT [3]: 5.22 x10E6/uL
- HEMATOCRIT [3]: 32.5%
- HEMOGLOBIN [3]: 12.8 G/DL
- LEUKOCYTE COUNT [3]: 9.07 x10E3/uL
- LYMPHOCYTE [3]: 90%
- MEAN CORPUSCULAR HEMOGLOBIN [3]: 24.53 pg
- MEAN CORPUSCULAR HEMOGLOBIN CONCENTRATION [3]: 39.4 G/DL
- MEAN CORPUSCULAR VOLUME [3]: 62.3 fL
- MONOCYTE [3]: 0.67%
- NEUTROPHIL [3]: 9.33%
- NUCLEATED RED BLOOD CELLS [3]: 0 /100WBC
- PLATELET COUNT [3]: 925.67 x10E3/uL
- ALANINE AMINOTRANSFERASE [3]: 55.67 u/L
- ALBUMIN [3]: 3.93 G/DL
- ALKALINE PHOSPHATASE [3]: 332.67 u/L
- ASPARTATE AMINOTRANSFERASE [3]: 81.67 u/L
- BLOOD UREA NITROGEN [3]: 13.67 mg/dL
- CARBON DIOXIDE [3]: 34.33 mmol/L
- CHLORIDE [3]: 98.67 MEQ/L
- CHOLESTEROL [3]: 82.67 mg/dL
- CREATINE PHOSPHOKINASE [3]: 214.67 u/L
- CREATININE [3]: 0.14 mg/dL
- GLUCOSE [3]: 150.67 mg/dL
- LACTATE DEHYDROGENASE [3]: 142.33 u/L
- LIPASE [3]: 9.33 u/L
- PHOSPHORUS [3]: 10.87 mg/dL
- POTASSIUM [3]: 5.64 MEQ/L
- SODIUM [3]: 144.73 MEQ/L
- TOTAL BILIRUBIN [3]: 0.17 mg/dL
- TOTAL PROTEIN [3]: 5.97 G/DL
- URIC ACID [3]: 0.47 mg/dL
